Experimental data: patent US9981944B2, “GDF-8 inhibitors” (Rigel Pharmaceuticals, Inc., priority 2015, dated 2018)

How the values were obtained:
HIS-TGFβR1 T204D = HIS-TGFβR1 T204D (Homo sapiens (Human), UniProt P36897, T204D); test: HTRF probe displacement assay, HIS-TGFβR1 T204D; assay type: binding; details: 1 nM HIS-TGFβR1 T204D, 1 hour at room temperature, read-out: TGFBR1T204D IC50
Method: (§1) Compounds were dissolved at 10 mM in dimethylsulfoxide (DMSO) and evaluated at eleven concentrations. IC50 values were derived by non-linear regression analysis.

HIS-TGFβR2 WT = HIS-TGFβR2 WT (Homo sapiens (Human), UniProt P37173); test: HTRF probe displacement assay, HIS-TGFβR2 WT; assay type: binding; details: 1 nM HIS-TGFβR2 WT, 1 hour at room temperature, read-out: TGFBR2WT IC50
Sequence of HIS-TGFβR2 WT (P37173 23-567): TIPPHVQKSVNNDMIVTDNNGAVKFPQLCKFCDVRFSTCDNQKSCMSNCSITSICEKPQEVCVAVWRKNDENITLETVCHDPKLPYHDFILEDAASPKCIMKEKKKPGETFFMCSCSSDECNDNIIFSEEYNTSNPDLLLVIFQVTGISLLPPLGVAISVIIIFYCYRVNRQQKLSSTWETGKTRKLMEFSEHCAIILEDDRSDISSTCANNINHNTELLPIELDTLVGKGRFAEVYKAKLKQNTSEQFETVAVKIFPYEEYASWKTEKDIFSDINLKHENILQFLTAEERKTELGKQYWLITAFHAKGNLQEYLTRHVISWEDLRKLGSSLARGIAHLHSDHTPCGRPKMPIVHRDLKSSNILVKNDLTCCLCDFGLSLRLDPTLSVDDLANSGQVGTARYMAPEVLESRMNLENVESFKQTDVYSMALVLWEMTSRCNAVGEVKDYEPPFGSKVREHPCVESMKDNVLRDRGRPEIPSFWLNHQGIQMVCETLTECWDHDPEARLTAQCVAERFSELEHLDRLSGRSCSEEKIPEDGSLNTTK
Method: as §1

Sequence of HIS-TGFβR1 T204D (P36897 34-503 T204D): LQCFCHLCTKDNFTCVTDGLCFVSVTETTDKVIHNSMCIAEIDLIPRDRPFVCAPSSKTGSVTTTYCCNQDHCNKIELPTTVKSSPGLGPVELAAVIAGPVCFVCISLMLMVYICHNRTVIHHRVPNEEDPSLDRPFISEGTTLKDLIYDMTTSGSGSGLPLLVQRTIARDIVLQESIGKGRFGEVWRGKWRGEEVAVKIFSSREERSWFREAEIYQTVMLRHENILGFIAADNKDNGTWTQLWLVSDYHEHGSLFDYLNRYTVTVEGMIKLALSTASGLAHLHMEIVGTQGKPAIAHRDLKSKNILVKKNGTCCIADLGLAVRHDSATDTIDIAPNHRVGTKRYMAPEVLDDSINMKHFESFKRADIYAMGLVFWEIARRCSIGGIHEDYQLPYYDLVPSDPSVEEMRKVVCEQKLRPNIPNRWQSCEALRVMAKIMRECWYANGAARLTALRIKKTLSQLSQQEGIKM

IC50 (HIS-TGFβR1 T204D) | IC50 (HIS-TGFβR2 WT) | Structure (SMILES)
0.187 µM | > 15 µM | Cc1cccc(-c2nc(C)ccc2-c2ccc3ncc(C#N)n3c2)n1 [Compound 86, 6-(6,6′-dimethyl-[2,2′-bipyridin]-3-yl)imidazo[1,2-a]pyridine-3-carbonitrile]
0.029 µM | > 15 µM | Cc1cccc(-c2ncccc2-c2ccn3ncc(C(=O)NC4COC4)c3n2)n1 [Compound 129, 5-(6′-methyl-[2,2′-bipyridin]-3-yl)-N-(oxetan-3-yl)pyrazolo[1,5-a]pyrimidine-3-carboxamide]
0.008 µM | > 15 µM | Cc1nc(-c2ncccc2-c2ccn3nccc3n2)ccc1F [Compound 137, 5-(5′-fluoro-6′-methyl-[2,2′-bipyridin]-3-yl)pyrazolo[1,5-a]pyrimidine]
15 µM | > 15 µM | Cc1cccc(-c2nccc(C(F)F)c2-c2ccc3ncc(C(N)=O)n3c2)n1 [Compound 94, 6-(4-(difluoromethyl)-6′-methyl-[2,2′-bipyridin]-3-yl)imidazo[1,2-a]pyridine-3-carboxamide]
0.605 µM | > 15 µM | N#Cc1cnc2ccc(-c3cccnc3-c3ccc(F)cn3)nn12 [Compound 53, 6-(5′-fluoro-[2,2′-bipyridin]-3-yl)imidazo[1,2-b]pyridazine-3-carbonitrile]
0.009 µM | > 15 µM | CCc1cccc(-c2ncccc2-c2ccc3ncnc(N)c3c2)n1 [Compound 107, 6-(6′-ethyl-[2,2′-bipyridin]-3-yl)quinazolin-4-amine]
0.017 µM | > 15 µM | Cc1nc(-c2ncccc2-c2ccc3ncc(C(N)=O)n3n2)ccc1F [Compound 43, 6-(5′-fluoro-6′-methyl-[2,2′-bipyridin]-3-yl)imidazo[1,2-b]pyridazine-3-carboxamide]
0.12 µM | > 15 µM | N#Cc1cnc2ccc(-c3cccnc3-c3cccc(F)n3)cn12 [Compound 36, 6-(6′-fluoro-[2,2′-bipyridin]-3-yl)imidazo[1,2-a]pyridine-3-carbonitrile]
0.137 µM | > 15 µM | O=C(O)c1cnn2ccc(-c3cccnc3-c3cccc(C(F)(F)F)n3)nc12 [Compound 124, 5-(6′-(trifluoromethyl)-[2,2′-bipyridin]-3-yl)pyrazolo[1,5-a]pyrimidine-3-carboxylic acid]
0.035 µM | > 15 µM | Cc1cccc(-c2ncccc2-c2ccc3ncc(C#N)n3n2)n1 [Compound 57, 6-(6′-methyl-[2, 2′-bipyridin]-3-yl) imidazo[1,2-b]pyridazine-3-carbonitrile]
15 µM | > 15 µM | NC(=O)c1cn2cc(-c3cccnc3-c3cccc(C(F)(F)F)n3)ccc2n1 [Compound 79, 6-(6′-(trifluoromethyl)-[2,2′-bipyridin]-3-yl)imidazo[1,2-a]pyridine-2-carboxamide]
0.061 µM | > 15 µM | N#Cc1cnc2ccc(-c3cccnc3-c3cccc(C(F)F)n3)nn12 [Compound 49, 6-(6′-(difluoromethyl)-[2,2′-bipyridin]-3-yl)imidazo[1,2-b]pyridazine-3-carbonitrile]
0.0004 µM | > 15 µM | NC(=O)c1cnc2ccc(-c3cccnc3-c3cccc(Cl)n3)cn12 [Compound 46, 6-(6′-chloro-[2,2′-bipyridin]-3-yl)imidazo[1,2-a]pyridine-3-carboxamide]
0.211 µM | > 15 µM | Cc1nc(-c2ncccc2-c2ccn3ncc(C(=O)O)c3n2)ccc1F [Compound 131, 5-(5′-fluoro-6′-methyl-[2,2′-bipyridin]-3-yl)pyrazolo[1,5-a]pyrimidine-3-carboxylic acid]
0.487 µM | > 15 µM | Cc1cccc(-c2nccc(CO)c2-c2ccc3ncc(C#N)n3c2)n1 [Compound 92, 6-(4-(hydroxymethyl)-6′-methyl-[2,2′-bipyridin]-3-yl)imidazo[1,2-a]pyridine-3-carbonitrile]
0.002 µM | > 15 µM | Cc1nc(-c2ncccc2-c2ccc3[nH]ncc3c2)ccc1F [Compound 117, 5-(5′-fluoro-6′-methyl-[2,2′-bipyridin]-3-yl)-1H-indazole]
0.013 µM | > 15 µM | Cc1ccc(-c2ccc3ncc(C(N)=O)n3c2)c(-c2cccc(C(F)F)n2)n1 [Compound 88, 6-(6′-(difluoromethyl)-6-methyl-[2,2′-bipyridin]-3-yl)imidazo[1,2-a]pyridine-3-carboxamide]
0.019 µM | > 15 µM | N#Cc1cnc2ccc(-c3cccnc3-c3cccc(C4CC4)n3)cn12 [Compound 34, 6-(6′-cyclopropyl-[2,2′-bipyridin]-3-yl)imidazo[1,2-a]pyridine-3-carbonitrile]
0.094 µM | > 15 µM | O=C(NC1CC1)c1cnn2ccc(-c3cccnc3-c3cccc(C(F)(F)F)n3)nc12 [Compound 126, N-cyclopropyl-5-(6′-(trifluoromethyl)-[2,2′-bipyridin]-3-yl)pyrazolo[1,5-a]pyrimidine-3-carboxamide]
0.059 µM | > 15 µM | Cc1cccc(-c2ncccc2-c2ccn3ncc(C#N)c3n2)n1 [Compound 119, 5-(6′-methyl-[2,2′-bipyridin]-3-yl)pyrazolo[1,5-a]pyrimidine-3-carbonitrile]
0.128 µM | > 15 µM | CNC(=O)c1cnn2ccc(-c3cccnc3-c3cccc(C)n3)nc12 [Compound 127, N-methyl-5-(6′-methyl-[2,2′-bipyridin]-3-yl)pyrazolo[1,5-a]pyrimidine-3-carboxamide]
0.004 µM | > 15 µM | COCCNC(=O)c1cnc2ccc(-c3cccnc3-c3cccc(C)n3)cn12 [Compound 70, N-(2-methoxyethyl)-6-(6′-methyl-[2,2′-bipyridin]-3-yl)imidazo[1,2-a]pyridine-3-carboxamide]
0.043 µM | > 15 µM | CC(=O)Nc1cnc(-c2cccc(C)n2)c(-c2ccc3ncc(C#N)n3c2)c1 [Compound 96, N-(3-(3-cyanoimidazo[1,2-a]pyridin-6-yl)-6′-methyl-[2,2′-bipyridin]-5-yl)acetamide]
0.026 µM | > 15 µM | Cc1cccc(-c2ncccc2-c2ccc3ncc(C(=O)O)n3n2)n1 [Compound 73, 6-(6′-methyl-[2,2′-bipyridin]-3-yl)imidazo[1,2-b]pyridazine-3-carboxylic acid]
0.172 µM | > 15 µM | CC(C)c1cccc(-c2ncccc2-c2ccc3ncnc(N)c3c2)n1 [Compound 108, 6-(6′-isopropyl-[2,2′-bipyridin]-3-yl)quinazolin-4-amine]
0.001 µM | > 15 µM | NC(=O)c1cnc2ccc(-c3cccnc3-c3cccc(C(F)F)n3)cn12 [Compound 29, 6-(6′-(difluoromethyl)-[2,2′-bipyridin]-3-yl)imidazo[1,2-a]pyridine-3-carboxamide]
0.918 µM | > 15 µM | N#Cc1cnc2ccc(-c3cccnc3-c3cc(F)ccn3)nn12 [Compound 59, 6-(4′-fluoro-[2,2′-bipyridin]-3-yl)imidazo[1,2-b]pyridazine-3-carbonitrile]
0.004 µM | > 15 µM | CC(=O)Nc1cn2cc(-c3cccnc3-c3ccc(F)c(C)n3)ccc2n1 [Compound 77, N-(6-(5′-fluoro-6′-methyl-[2,2′-bipyridin]-3-yl)imidazo[1,2-a]pyridin-2-yl)acetamide]
